This is an account of results in ChEMBL document CHEMBL4052764, “Development of a prodrug of hydantoin based TACE inhibitor” (Bioorg Med Chem Lett, 2017).

Molecules are shown by their SMILES. Values after ≈ are worked out from the molar mass of the structure shown. Some results are limits rather than exact numbers.

In data set [1] the test system is Rattus norvegicus. The experiment in a line: AUC in rat assessed as (S)-5-(furo[3,2-b]pyridin-2-yl)-5-((6-methoxy-1-oxoisoindolin-2-yl)methyl)imidazolidine-2,4-dione level at 10 mg/kg, po by HPLC/MS analysis. The data set is classed as ADME, organism-based. The following applies: in vivo.
Data set [2] in a line: AUC in rat at 10 mg/kg, po by LC/MS/MS analysis. The data set is classed as ADME, organism-based. The note with it: in vivo.
Data set [3] in a line: AUC in monkey at 10 mg/kg, po by LC/MS/MS analysis. The note with it: rhesus monkey, in vivo. The data set is classed as ADME, organism-based, Macaca mulatta.
Data set [4] can be described thus: AUC in dog at 10 mg/kg, po by LC/MS/MS analysis. The class given is ADME, organism-based, Canis lupus familiaris. The following applies: in vivo.
Data set [5] is described as follows: Oral bioavailability in rat at 10 mg/kg by LC/MS/MS analysis. The data set is classed as ADME, organism-based. The following applies: in vivo.
Data set [6] is described as follows: Oral bioavailability in monkey at 10 mg/kg by LC/MS/MS analysis. The note with it: rhesus monkey, in vivo. The data set is classed as ADME, organism-based, Macaca mulatta.
Data set [7] in a line: Oral bioavailability in dog at 10 mg/kg by LC/MS/MS analysis. The class given is ADME, organism-based, Canis lupus familiaris. The following applies: in vivo.
A short description of data set [8]: AUC in rat at 100 mg/kg, po administered as single dose by LC/MS/MS analysis. The class given is ADME, organism-based. The note with it: in vivo.
The nature of data set [9]: AUC in rat at 300 mg/kg, po administered as single dose by LC/MS/MS analysis. The data set is classed as ADME, organism-based. The following applies: in vivo.
A short description of data set [10]: AUC in rat at 500 mg/kg, po administered as single dose by LC/MS/MS analysis. The note with it: in vivo. The data set is classed as ADME, organism-based.
Data set [11] addresses Disintegrin and metalloproteinase domain-containing protein 17 (Homo sapiens, UniProt P78536). The experiment in a line: Inhibition of TACE in human whole blood assessed as inhibition of LPS-stimulated TNFalpha production pretreated for 1 hr followed by LPS stimulation for 3.5 hrs by ELISA.
Data set [12] in a line: AUC in rat at 10 mg/kg, po by HPLC/MS analysis. The class given is ADME, organism-based. The following applies: in vivo.
Data set [13] in a line: Permeability in human Caco2 cells at pH 7.4. The data set is classed as ADME, cell-based. The following applies: Caco-2, pH 7.4, read-out: permeability.
A short description of data set [14]: Solubility of the compound at pH 6.5. The data set is classed as physicochemical. The following applies: buffer.
For data set [15], the system named is Rattus norvegicus. The experiment in a line: AUC in rat assessed as (S)-5-(furo[3,2-b]pyridin-2-yl)-5-((6-methoxy-1-oxoisoindolin-2-yl)methyl)imidazolidine-2,4-dione level at 100 mg/kg, po administered as single dose by LC/MS/MS analysis. The class given is ADME, organism-based. The note with it: in vivo.
Data set [16] has as its system Rattus norvegicus. The experiment in a line: AUC in rat assessed as (S)-5-(furo[3,2-b]pyridin-2-yl)-5-((6-methoxy-1-oxoisoindolin-2-yl)methyl)imidazolidine-2,4-dione level at 300 mg/kg, po administered as single dose by LC/MS/MS analysis. The data set is classed as ADME, organism-based. The note with it: in vivo.
For data set [17], the system named is Rattus norvegicus. The experiment in a line: AUC in rat assessed as (S)-5-(furo[3,2-b]pyridin-2-yl)-5-((6-methoxy-1-oxoisoindolin-2-yl)methyl)imidazolidine-2,4-dione level at 500 mg/kg, po administered as single dose by LC/MS/MS analysis. The class given is ADME, organism-based. The note with it: in vivo.
The test system of data set [18] is Rattus norvegicus. The experiment in a line: Oral bioavailability in rat assessed as (S)-5-(furo[3,2-b]pyridin-2-yl)-5-((6-methoxy-1-oxoisoindolin-2-yl)methyl)imidazolidine-2,4-dione level at 10 mg/kg by LC/MS/MS analysis. The note with it: in vivo. The data set is classed as ADME, organism-based.
A further data set concerns Rhesus monkey. The experiment in a line: Oral bioavailability in monkey assessed as (S)-5-(furo[3,2-b]pyridin-2-yl)-5-((6-methoxy-1-oxoisoindolin-2-yl)methyl)imidazolidine-2,4-dione level by LC/MS/MS analysis. The class given is ADME, organism-based, Macaca mulatta. The note with it: in vivo.
The next data set relates to Canis familiaris. The experiment in a line: Oral bioavailability in dog assessed as (S)-5-(furo[3,2-b]pyridin-2-yl)-5-((6-methoxy-1-oxoisoindolin-2-yl)methyl)imidazolidine-2,4-dione level by LC/MS/MS analysis. The class given is ADME, organism-based, Canis lupus familiaris. The following applies: in vivo.
The nature of data set [19]: Prodrug activation in human intestinal microsomes assessed as (S)-5-(furo[3,2-b]pyridin-2-yl)-5-((6-methoxy-1-oxoisoindolin-2-yl)methyl)imidazolidine-2,4-dione formation. The arrangement: species or system Intestine, Microsome.
Data set [20] concerns Liver. The experiment in a line: Prodrug activation in mouse liver microsomes assessed as (S)-5-(furo[3,2-b]pyridin-2-yl)-5-((6-methoxy-1-oxoisoindolin-2-yl)methyl)imidazolidine-2,4-dione formation. The class given is microsome.
The test system of data set [21] is Liver. The experiment in a line: Prodrug activation in rat liver microsomes assessed as (S)-5-(furo[3,2-b]pyridin-2-yl)-5-((6-methoxy-1-oxoisoindolin-2-yl)methyl)imidazolidine-2,4-dione formation. The data set is classed as microsome.
The test system of data set [22] is Liver. The experiment in a line: Prodrug activation in dog liver microsomes assessed as (S)-5-(furo[3,2-b]pyridin-2-yl)-5-((6-methoxy-1-oxoisoindolin-2-yl)methyl)imidazolidine-2,4-dione formation. The data set is classed as Canis lupus familiaris, microsome.
Data set [23] in a line: Prodrug activation in monkey liver microsomes assessed as (S)-5-(furo[3,2-b]pyridin-2-yl)-5-((6-methoxy-1-oxoisoindolin-2-yl)methyl)imidazolidine-2,4-dione formation. The class given is Macaca mulatta, microsome. The note with it: rhesus monkey.
Data set [24] has as its system Liver. The experiment in a line: Prodrug activation in human liver microsomes assessed as (S)-5-(furo[3,2-b]pyridin-2-yl)-5-((6-methoxy-1-oxoisoindolin-2-yl)methyl)imidazolidine-2,4-dione formation. The data set is classed as microsome.
Data set [25] has as its system Rattus norvegicus. The experiment in a line: AUC in rat assessed as (S)-5-(5-(4-ethylpiperazin-1-yl)furo[3,2-b]pyridin-2-yl)-5-((7-fluoro-6-methoxy-1-oxoisoindolin-2-yl)methyl)imidazolidine-2,4-dione level at 10 mg/kg, po by LC/MS/MS analysis. The following applies: in vivo. The class given is ADME, organism-based.
Data set [26] concerns Rattus norvegicus. The experiment in a line: Oral bioavailability in rat assessed as (S)-5-(5-(4-ethylpiperazin-1-yl)furo[3,2-b]pyridin-2-yl)-5-((7-fluoro-6-methoxy-1-oxoisoindolin-2-yl)methyl)imidazolidine-2,4-dione level at 10 mg/kg by LC/MS/MS analysis. The class given is ADME, organism-based. The note with it: in vivo.

Disintegrin and metalloproteinase domain-containing protein 17, sequence (P78536 whole entry, the tested form may be a part): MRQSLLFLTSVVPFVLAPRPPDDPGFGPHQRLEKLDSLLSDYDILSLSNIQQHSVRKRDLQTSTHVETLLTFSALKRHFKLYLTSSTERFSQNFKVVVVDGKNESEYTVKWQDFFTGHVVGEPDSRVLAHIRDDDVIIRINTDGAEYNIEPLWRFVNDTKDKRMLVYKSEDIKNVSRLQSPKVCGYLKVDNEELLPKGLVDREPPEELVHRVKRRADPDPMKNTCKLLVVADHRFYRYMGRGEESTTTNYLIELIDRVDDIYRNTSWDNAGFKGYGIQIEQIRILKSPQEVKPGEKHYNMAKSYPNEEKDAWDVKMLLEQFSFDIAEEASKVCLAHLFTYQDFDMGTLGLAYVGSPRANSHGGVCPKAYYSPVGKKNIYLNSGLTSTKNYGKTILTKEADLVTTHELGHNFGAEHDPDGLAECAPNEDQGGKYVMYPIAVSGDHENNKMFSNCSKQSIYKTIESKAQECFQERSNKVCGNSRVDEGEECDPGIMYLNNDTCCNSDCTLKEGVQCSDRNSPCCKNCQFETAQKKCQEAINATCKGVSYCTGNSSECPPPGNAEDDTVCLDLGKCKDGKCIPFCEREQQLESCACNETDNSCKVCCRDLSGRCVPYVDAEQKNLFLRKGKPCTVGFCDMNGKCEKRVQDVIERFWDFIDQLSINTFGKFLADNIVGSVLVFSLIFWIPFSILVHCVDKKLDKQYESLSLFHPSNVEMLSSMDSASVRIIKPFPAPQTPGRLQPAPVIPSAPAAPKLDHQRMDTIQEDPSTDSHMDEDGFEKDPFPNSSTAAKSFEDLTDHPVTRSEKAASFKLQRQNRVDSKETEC

With `CCN1C(=O)N[C@@](CN2Cc3ccc(OC)cc3C2=O)(c2cc3ncccc3o2)C1=O`, the AUC in the data set on Rattus norvegicus [1] amounted to 0.9 µM·h.
In the case of `COc1ccc2c(c1)C(=O)N(C[C@@]1(c3cc4ncccc4o3)NC(=O)NC1=O)C2.[Na+]`, the AUC in [2] is 10 µM·h; in [3], 5.2 µM·h; in [4], 41 µM·h. For the same molecule, the bioavailability in data set [5] was determined as 35%; in data set [6] it was 46%; in [7] it was 82%.
Consider `COc1ccc2c(c1)C(=O)N(C[C@@]1(c3cc4ncccc4o3)NC(=O)NC1=O)C2`, for which the AUC in data set [8] was determined as 120 µM·h; in data set [9], 130 µM·h; in [10], 240 µM·h; in data set [12] it was 8.6 µM·h. In addition, in [11], the IC50 is 0.287 µM. Also, the Papp in data set [13] was found to be 12 nm/s. In addition, in [14], the concentration in solution (solubility) was 39 µM (≈ 15.3 µg/mL).
Consider `COc1ccc2c(c1)C(=O)N(C[C@@]1(c3cc4ncccc4o3)NC(=O)N(COC(=O)c3ccccc3OC(C)=O)C1=O)C2`, for which the IC50 in [11] amounted to 0.56 µM. The area under the curve (AUC) in the data set on Rattus norvegicus [1] came to 4.4 µM·h.
On to `COc1ccc2c(c1)C(=O)N(C[C@@]1(c3cc4ncccc4o3)NC(=O)N(COC(=O)C(C)(C)C)C1=O)C2`, for which the half-maximal inhibitory concentration (IC50) in [11] was 0.281 µM. Further, the AUC is 13.1 µM·h in the data set with Rattus norvegicus [1], 210 µM·h in the data set on Rattus norvegicus [15], 780 µM·h in the data set on Rattus norvegicus [16] and 1450 µM·h with Rattus norvegicus [17]. Also, the Papp in data set [13] is over 116 nm/s. The solubility in [14] is 175 µM (≈ 88.6 µg/mL). The values for the F with Rattus norvegicus [18], in the data set with Rhesus monkey and in the data set with Canis familiaris were 74%, 92% and 72%, respectively. For the same molecule, the Drug metabolism result (in data set [19]; in the data set with Liver [20]; in the data set on Liver [21]; in the data set on Liver [22]; in data set [23]; in the data set on Liver [24]) was “Metabolite_Detected” in each case.
Regarding `CCOP(=O)(OCC)OCN1C(=O)N[C@@](CN2Cc3ccc(OC)cc3C2=O)(c2cc3ncccc3o2)C1=O`, the AUC with Rattus norvegicus [1] worked out at 0.05 µM·h.
On to `COc1ccc2c(c1F)C(=O)N(C[C@@]1(c3cc4nc(N5CCNC(=O)C5)ccc4o3)NC(=O)N(COC(=O)C(C)(C)C)C1=O)C2`, for which the concentration for half-maximal inhibition (IC50) in data set [11] was determined as 0.104 µM. In addition, in the data set with Rattus norvegicus [1], the AUC is 0.6 µM·h.
For `COc1ccc2c(c1F)C(=O)N(C[C@@]1(c3cc4nc(-c5cn[nH]c5)ccc4o3)NC(=O)N(COC(=O)C(C)(C)C)C1=O)C2`, in data set [11], the IC50 came out at 0.141 µM. Moreover, the AUC with Rattus norvegicus [1] amounted to 0.3 µM·h.
Turning to `COc1ccc2c(c1F)C(=O)N(C[C@@]1(c3cc4nc(N)ccc4o3)NC(=O)N(COC(=O)C(C)(C)C)C1=O)C2`, the IC50 in data set [11] is 0.178 µM. Besides, the AUC in the data set with Rattus norvegicus [1] stood at 0.4 µM·h.
On to `COCCOCCOCCN1C(=O)N[C@@](CN2Cc3ccc(OC)cc3C2=O)(c2cc3ncccc3o2)C1=O`, for which the area under the curve (AUC) in the data set with Rattus norvegicus [1] is 0.02 µM·h.
In the case of `COc1ccc2c(c1)C(=O)N(C[C@@]1(c3cc4nc(N5CC[C@@H](O)C5)ccc4o3)NC(=O)N(COC(=O)C(C)(C)C)C1=O)C2`, the IC50 in data set [11] came out at 0.339 µM. The AUC in the data set on Rattus norvegicus [1] stood at 2.7 µM·h.
Take `CCN1CCN(c2ccc3oc([C@]4(CN5Cc6ccc(OC)cc6C5=O)NC(=O)N(COC(=O)C(C)(C)C)C4=O)cc3n2)CC1`: in [11], the IC50 was found to be 0.176 µM. The AUC in the data set on Rattus norvegicus [1] was determined as 0.7 µM·h.
Regarding `COc1ccc2c(c1)C(=O)N(C[C@]1(c3cc4ncccc4o3)C(=O)N(COC(=O)C(C)(C)C)C(=O)N1COC(=O)C(C)(C)C)C2`, the exposure (AUC) in the data set on Rattus norvegicus [1] stood at 3.1 µM·h.
`COc1ccc2c(c1)C(=O)N(C[C@@]1(c3cc4ncccc4o3)NC(=O)N(C(C)C)C1=O)C2`: the IC50 in data set [11] is 7.15 µM. Further, in the data set with Rattus norvegicus [1], the exposure (AUC) came to 0.4 µM·h.
In the case of `COc1ccc2c(c1)C(=O)N(C[C@@]1(c3cc4ncccc4o3)NC(=O)N(C)C1=O)C2`, the exposure (AUC) in the data set on Rattus norvegicus [1] turned out to be 0.9 µM·h.
Regarding `COc1ccc2c(c1)C(=O)N(C[C@@]1(c3cc4nc(N5CCCNC5=O)ccc4o3)NC(=O)N(COC(=O)C(C)(C)C)C1=O)C2`, the IC50 in data set [11] worked out at 0.282 µM. The AUC with Rattus norvegicus [1] stood at 0.2 µM·h.
For the molecule `COc1ccc2c(c1F)C(=O)N(C[C@@]1(c3cc4nc(N5CCN(C)CC5)ccc4o3)NC(=O)N(COC(=O)C(C)(C)C)C1=O)C2`, the IC50 in data set [11] was determined as 0.092 µM. In addition, the area under the curve (AUC) in the data set on Rattus norvegicus [1] was 8.6 µM·h.
Consider `CCN1CCN(c2ccc3oc([C@]4(CN5Cc6ccc(OC)c(F)c6C5=O)NC(=O)N(COC(=O)C(C)(C)C)C4=O)cc3n2)CC1`, for which, in [11], the IC50 turned out to be 0.061 µM. Besides, the results for the area under the curve (AUC) in the data set on Rattus norvegicus [1] and in the data set on Rattus norvegicus [25] were 20 µM·h and 4.7 µM·h, respectively. In the data set with Rattus norvegicus [26], the F was found to be 7%.
For `COc1ccc2c(c1)C(=O)N(C[C@@]1(c3cc4nc(N5CCNCC5)ccc4o3)NC(=O)N(COC(=O)C(C)(C)C)C1=O)C2`, in [11], the IC50 worked out at 0.156 µM.
